Our source for the T/C values is PubChem BioAssay AID330 (DTP/NCI, 2004).

Toxic doses and inconclusive results are not listed.

The test system of this experiment is P388 leukemia ip, CD2F1 mice, survival T/C. Description: NCI In Vivo Anticancer Drug Screen. Data for tumor model P388 Leukemia (intraperitoneal) in CD2F1 (CDF1) mice. Particulars: endpoint: median survival time, higher = longer survival. The procedure, abridged: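 Mice carrying the transplanted tumor received test compound or vehicle. Survival was recorded in each group, and the value is the treated-group measurement divided by that of the vehicle-treated control group.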

[1] abbreviates: dose: 100.0 mg/kg/injection, schedule: Q04DX003 (ip), vehicle: saline with Tween-80.
The mark [2] stands for this setting: dose: 200.0 mg/kg/injection, schedule: Q04DX003 (ip), vehicle: saline with Tween-80.
Where [3] appears, read: dose: 400.0 mg/kg/injection, schedule: Q04DX003 (ip), vehicle: saline with Tween-80.
[4] abbreviates: dose: 50.0 mg/kg/injection, schedule: Q01DX009 (ip), vehicle: saline with Tween-80.
Setting [5] is: dose: 100.0 mg/kg/injection, schedule: Q01DX009 (ip), vehicle: saline with Tween-80.
Where [6] appears, read: dose: 200.0 mg/kg/injection, schedule: Q01DX009 (ip), vehicle: saline with Tween-80.
Where [7] appears, read: dose: 25.0 mg/kg/injection, schedule: Q01DX009 (ip), vehicle: saline with Tween-80.
Setting [8] is: dose: 60.0 mg/kg/injection, schedule: Q01DX005 (ip), vehicle: saline.
Where [9] appears, read: dose: 120.0 mg/kg/injection, schedule: Q01DX005 (ip), vehicle: saline.
Where [10] appears, read: dose: 240.0 mg/kg/injection, schedule: Q01DX005 (ip), vehicle: saline.
[11] abbreviates: dose: 50.0 mg/kg/injection, schedule: Q01DX005 (ip), vehicle: distilled water + Tween-80.
Setting [12] is: dose: 100.0 mg/kg/injection, schedule: Q01DX005 (ip), vehicle: distilled water + Tween-80.
The mark [13] stands for this setting: dose: 60.0 mg/kg/injection, schedule: Q01DX005 (ip), vehicle: saline with Tween-80.
Where [14] appears, read: dose: 120.0 mg/kg/injection, schedule: Q01DX005 (ip), vehicle: saline with Tween-80.
Setting [15] is: dose: 240.0 mg/kg/injection, schedule: Q01DX005 (ip), vehicle: saline with Tween-80.
Where [16] appears, read: dose: 50.0 mg/kg/injection, schedule: Q01DX005 (ip), vehicle: saline with Tween-80.
The mark [17] stands for this setting: dose: 100.0 mg/kg/injection, schedule: Q01DX005 (ip), vehicle: saline with Tween-80.
Setting [18] is: dose: 200.0 mg/kg/injection, schedule: Q01DX005 (ip), vehicle: saline with Tween-80.
The mark [19] stands for this setting: dose: 50.0 mg/kg/injection, schedule: Q01DX005 (ip), vehicle: Klucel (hydroxypropylcellulose) (HPC).
Where [20] appears, read: dose: 100.0 mg/kg/injection, schedule: Q01DX005 (ip), vehicle: Klucel (hydroxypropylcellulose) (HPC).

Consider `O=C(NC(ON1CCCCC1)C(=O)O)c1ccccc1` (stereo not drawn), for which the T/C is, setting by setting: (dose: 50.0 mg/kg/injection, schedule: Q01DX009 (ip), vehicle: Klucel (hydroxypropylcellulose) (HPC)) 104 % of control; (dose: 100.0 mg/kg/injection, schedule: Q01DX009 (ip), vehicle: Klucel (hydroxypropylcellulose) (HPC)) 102 % of control; (dose: 200.0 mg/kg/injection, schedule: Q01DX009 (ip), vehicle: Klucel (hydroxypropylcellulose) (HPC)) 98 % of control.

Consider `CN(C(N)=O)C1CCCC1`, for which the T/C by setting is: under setting [1], 100 % of control; under setting [2], 109 % of control; under setting [3], 113 % of control.

As to `O=NN(Cc1ccc(Cl)cc1)C(C(=O)O)c1ccccc1` (stereo not drawn), the T/C is 103 % of control (dose: 60.0 mg/kg/injection, schedule: Q01DX005 (ip), vehicle: Klucel + Tween-80) and 103 % of control (dose: 120.0 mg/kg/injection, schedule: Q01DX005 (ip), vehicle: Klucel + Tween-80).

On to `CC(=O)OCc1ccc(Cl)cc1`, for which the T/C is 99 % of control under setting [4]; 100 % of control (dose: 50.0 mg/kg/injection, schedule: Q04DX003 (ip), vehicle: saline); 99 % of control under setting [5]; 104 % of control (dose: 100.0 mg/kg/injection, schedule: Q04DX003 (ip), vehicle: saline); 114 % of control under setting [6]; 113 % of control (dose: 200.0 mg/kg/injection, schedule: Q04DX003 (ip), vehicle: saline). Further, the T/C (dose: 400.0 mg/kg/injection, schedule: Q01DX009 (ip), vehicle: saline with Tween-80) is 123 % of control.

In the case of `N=c1c(C(=O)OCc2ccccc2)ncc(CCl)n1O`, the T/C is 114 % of control under setting [7], 124 % of control under setting [4], 123 % of control under setting [5] and 116 % of control under setting [6].

Take `CCN(CC)CC(C)(C)C(=O)/C=C/c1ccccc1`: the T/C is 103 % of control under setting [8], 102 % of control under setting [9] and 115 % of control under setting [10].

On to `Nc1nc([Se]c2nc(N)nc3c2ncn3C2OC(CO)C(O)C2O)c2ncn(C3OC(CO)C(O)C3O)c2n1` (stereo not drawn), for which the T/C is 150 % of control (dose: 25.0 mg/kg/injection, schedule: Q01DX005 (ip), vehicle: distilled water + Tween-80); 161 % of control under setting [11]; 156 % of control under setting [12].

For the compound `COc1cc2c(cc1OC)-c1cc(C)c3cc(OC)c(OC)cc3[n+]1CC2`, the T/C is 111 % of control (dose: 50.0 mg/kg/injection, schedule: Q01DX009 (ip), vehicle: water); 110 % of control (dose: 100.0 mg/kg/injection, schedule: Q01DX009 (ip), vehicle: water); 117 % of control (dose: 200.0 mg/kg/injection, schedule: Q01DX009 (ip), vehicle: water).

As for `CS(=O)(=O)N1COC(=O)[C@@H]1c1ccccc1`, the T/C is, setting by setting: under setting [13], 100 % of control; under setting [14], 101 % of control; under setting [15], 101 % of control.

Turning to `O=C1/C(=C\c2ccc([N+](=O)[O-])cc2)CS(=O)(=O)C/C1=C/c1ccc([N+](=O)[O-])cc1`, the T/C reads like this: under setting [7], 95 % of control; under setting [4], 94 % of control; under setting [5], 105 % of control; under setting [6], 116 % of control.

Take `Cc1c(Cl)c(C)c(Cl)c(O)c1Cl`: the T/C by setting is: under setting [1], 104 % of control; under setting [2], 100 % of control; under setting [3], 104 % of control.

Regarding `COc1ccc(N2C(=O)C3CSCN3C2=O)cc1` (stereo not drawn), the T/C under setting [13] is 100 % of control, the T/C under setting [14] was 94 % of control and the T/C under setting [15] is 92 % of control.

On to `COc1cc(C[C@H]2c3cc(OC)c(OC)c(O)c3CCN2C)c(Oc2cc3c(cc2OC)-c2c(OC)c(OC)c(OC)c4c2C(C3)N(C)CC4)cc1OC` (stereo partly drawn) (tested in a mixture with another compound), for which the T/C (dose: 8.75 mg/kg/injection, schedule: Q01DX005 (ip), vehicle: Klucel (hydroxypropylcellulose) (HPC)) was 103 % of control; the T/C (dose: 17.5 mg/kg/injection, schedule: Q01DX005 (ip), vehicle: Klucel (hydroxypropylcellulose) (HPC)) was 99 % of control; the T/C (dose: 35.0 mg/kg/injection, schedule: Q01DX005 (ip), vehicle: Klucel (hydroxypropylcellulose) (HPC)) is 96 % of control; the T/C (dose: 70.0 mg/kg/injection, schedule: Q01DX005 (ip), vehicle: Klucel (hydroxypropylcellulose) (HPC)) is 94 % of control.

In the case of `CCOC(=O)/C=C/N=[N+]=[N-]`, the T/C is, setting by setting: under setting [13], 102 % of control; under setting [14], 105 % of control; under setting [15], 106 % of control.

For the compound `C=C1C(=O)O[C@@H]2C[C@@]3(C)CC(=O)C=C(C)[C@@H]3C[C@H]12`, the T/C is, setting by setting: (dose: 6.25 mg/kg/injection, schedule: Q04DX003 (ip), vehicle: saline with Tween-80) 108 % of control; (dose: 12.5 mg/kg/injection, schedule: Q04DX003 (ip), vehicle: saline with Tween-80) 104 % of control; (dose: 25.0 mg/kg/injection, schedule: Q04DX003 (ip), vehicle: saline with Tween-80) 108 % of control; (dose: 50.0 mg/kg/injection, schedule: Q04DX003 (ip), vehicle: saline with Tween-80) 100 % of control.

`Cc1cc(NC(=O)SCCOC(=O)COc2ccc(Cl)cc2)ccc1Cl`: the T/C was 100 % of control under setting [1], 95 % of control under setting [2] and 90 % of control under setting [3].

As to `Cc1nc2c([N+](=O)[O-])cc(C(=O)O)cc2[nH]1`, the T/C by setting is: under setting [8], 100 % of control; under setting [9], 97 % of control; under setting [10], 87 % of control.

`Nc1nc2[nH]c(=O)[nH]c(=O)c2[nH]1`: the T/C is, setting by setting: under setting [16], 100 % of control; under setting [17], 102 % of control; under setting [18], 109 % of control.

In the case of `O=C(N/N=C\c1ccccc1O)c1cccc2ccccc12`, the T/C reads like this: under setting [19], 99 % of control; under setting [20], 99 % of control; (dose: 200.0 mg/kg/injection, schedule: Q01DX005 (ip), vehicle: Klucel (hydroxypropylcellulose) (HPC)) 102 % of control.

Turning to `O=c1[nH]c(=O)c2c(Cl)cccc2[nH]1`, the T/C under setting [16] was 93 % of control, the T/C under setting [17] was 100 % of control and the T/C under setting [18] was 91 % of control.

Regarding `NNC(=O)c1ccccc1Cl`, the T/C was 97 % of control (dose: 6.25 mg/kg/injection, schedule: Q01DX009 (ip), vehicle: Klucel (hydroxypropylcellulose) (HPC)); 100 % of control (dose: 6.25 mg/kg/injection, schedule: Q01DX009 (ip), vehicle: saline); 96 % of control (dose: 12.5 mg/kg/injection, schedule: Q01DX009 (ip), vehicle: Klucel (hydroxypropylcellulose) (HPC)); 100 % of control (dose: 12.5 mg/kg/injection, schedule: Q01DX009 (ip), vehicle: saline); 100 % of control (dose: 25.0 mg/kg/injection, schedule: Q01DX009 (ip), vehicle: Klucel (hydroxypropylcellulose) (HPC)).

Turning to `O=C(N/N=C/c1ccccn1)c1ccccc1[O-].O=C(N/N=C/c1ccccn1)c1ccccc1[O-].[Co+2]`, the T/C by setting is: under setting [19], 113 % of control; under setting [20], 117 % of control.

Turning to `O=C1c2ccccc2COC1c1ccccc1` (stereo not drawn), the T/C by setting is: (dose: 50.0 mg/kg/injection, schedule: Q01DX009 (ip), vehicle: saline) 108 % of control; (dose: 100.0 mg/kg/injection, schedule: Q01DX009 (ip), vehicle: saline) 111 % of control; (dose: 200.0 mg/kg/injection, schedule: Q01DX009 (ip), vehicle: saline) 118 % of control.

With `COc1ccc(C(C)c2cc3c(cc2OCCO)OCO3)cc1O` (stereo not drawn), the T/C runs as follows: under setting [11], 97 % of control; under setting [12], 99 % of control; (dose: 200.0 mg/kg/injection, schedule: Q01DX005 (ip), vehicle: distilled water + Tween-80) 98 % of control.

With `CN(C)C(CCC(=O)O)C(=O)O` (stereo not drawn), the T/C was 102 % of control (dose: 50.0 mg/kg/injection, schedule: Q01DX005 (ip), vehicle: saline); 97 % of control (dose: 100.0 mg/kg/injection, schedule: Q01DX005 (ip), vehicle: saline); 98 % of control (dose: 200.0 mg/kg/injection, schedule: Q01DX005 (ip), vehicle: saline).
